Experimental findings from PubChem BioAssay AID330 (DTP/NCI, 2004) are described below.

In the assay the test system is P388 leukemia ip, CD2F1 mice, survival T/C. Kind of assay: NCI In Vivo Anticancer Drug Screen. Data for tumor model P388 Leukemia (intraperitoneal) in CD2F1 (CDF1) mice. Conditions: endpoint: median survival time, higher = longer survival. The essentials: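 Mice carrying the transplanted tumor received test compound or vehicle. Survival was recorded in each group, and the value is the treated-group measurement divided by that of the vehicle-treated control group.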

Where [1] appears, read: dose: 100.0 mg/kg/injection, schedule: Q01DX009 (ip), vehicle: saline with Tween-80.
[2] abbreviates: dose: 100.0 mg/kg/injection, schedule: Q04DX003 (ip), vehicle: saline with Tween-80.
Where [3] appears, read: dose: 200.0 mg/kg/injection, schedule: Q01DX009 (ip), vehicle: saline with Tween-80.
[4] abbreviates: dose: 200.0 mg/kg/injection, schedule: Q04DX003 (ip), vehicle: saline with Tween-80.
The mark [5] stands for this setting: dose: 60.0 mg/kg/injection, schedule: Q01DX005 (ip), vehicle: saline with Tween-80.
The mark [6] stands for this setting: dose: 120.0 mg/kg/injection, schedule: Q01DX005 (ip), vehicle: saline with Tween-80.
[7] abbreviates: dose: 240.0 mg/kg/injection, schedule: Q01DX005 (ip), vehicle: saline with Tween-80.
Setting [8] is: dose: 50.0 mg/kg/injection, schedule: Q01DX009 (ip), vehicle: Klucel (hydroxypropylcellulose) (HPC).
[9] abbreviates: dose: 50.0 mg/kg/injection, schedule: Q01DX005 (ip), vehicle: Klucel (hydroxypropylcellulose) (HPC).
[10] abbreviates: dose: 100.0 mg/kg/injection, schedule: Q01DX005 (ip), vehicle: Klucel (hydroxypropylcellulose) (HPC).
Setting [11] is: dose: 200.0 mg/kg/injection, schedule: Q01DX005 (ip), vehicle: Klucel (hydroxypropylcellulose) (HPC).
Setting [12] is: dose: 100.0 mg/kg/injection, schedule: Q04DX002 (ip), vehicle: saline with Tween-80.
[13] abbreviates: dose: 200.0 mg/kg/injection, schedule: Q04DX002 (ip), vehicle: saline with Tween-80.
Setting [14] is: dose: 400.0 mg/kg/injection, schedule: Q04DX002 (ip), vehicle: saline with Tween-80.
[15] abbreviates: dose: 50.0 mg/kg/injection, schedule: Q01DX009 (ip), vehicle: saline with Tween-80.
[16] abbreviates: dose: 12.5 mg/kg/injection, schedule: Q01DX009 (ip), vehicle: Klucel (hydroxypropylcellulose) (HPC).
[17] abbreviates: dose: 25.0 mg/kg/injection, schedule: Q01DX009 (ip), vehicle: Klucel (hydroxypropylcellulose) (HPC).

“And” between values parts separate entries of the source, which are not always exact repeats. Identical values can stand only once. Toxic doses and inconclusive results are not listed.

Turning to `CN(C)N1C(=O)C(C(=O)Nc2cccc3ccccc23)SC1=S` (stereo not given), the T/C is, setting by setting: (dose: 0.75 mg/kg/injection, schedule: Q01DX005 (ip), vehicle: saline with Tween-80) 96 % of control; (dose: 1.5 mg/kg/injection, schedule: Q01DX005 (ip), vehicle: saline with Tween-80) 88 % of control; (dose: 3.0 mg/kg/injection, schedule: Q01DX005 (ip), vehicle: saline with Tween-80) 91 % of control; (dose: 100.0 mg/kg/injection, schedule: Q01DX005 (ip), vehicle: saline with Tween-80) 99 % of control; (dose: 200.0 mg/kg/injection, schedule: Q01DX005 (ip), vehicle: saline with Tween-80) 103 % of control.
`Cc1cccc(-c2cc(Cl)c3cc(S(=O)(=O)F)ccc3n2)c1`: the T/C is, setting by setting: under setting [1], 100 % of control; under setting [2], 100 % of control; under setting [3], 108 % of control; under setting [4], 100 % of control; (dose: 400.0 mg/kg/injection, schedule: Q01DX009 (ip), vehicle: saline with Tween-80) 100 % of control; (dose: 400.0 mg/kg/injection, schedule: Q04DX003 (ip), vehicle: saline with Tween-80) 109 % of control.
On to `CC(=O)OCc1c(Cl)nc2n1CCS2`, for which the T/C is 103 % of control (dose: 25.0 mg/kg/injection, schedule: Q01DX001 (ip), vehicle: Klucel (hydroxypropylcellulose) (HPC)); 96 % of control (dose: 50.0 mg/kg/injection, schedule: Q01DX001 (ip), vehicle: Klucel (hydroxypropylcellulose) (HPC)); 102 % of control (dose: 100.0 mg/kg/injection, schedule: Q01DX001 (ip), vehicle: Klucel (hydroxypropylcellulose) (HPC)).
For the compound `O=C1c2cc3ccccc3cc2NC(O)c2cccn21` (stereo not given), the T/C is 96 % of control (dose: 0.1 mg/kg/injection, schedule: Q01DX005 (ip), vehicle: water); 91 % of control (dose: 0.2 mg/kg/injection, schedule: Q01DX005 (ip), vehicle: water); 100 % of control (dose: 0.4 mg/kg/injection, schedule: Q01DX005 (ip), vehicle: water); 107 % of control (dose: 0.8 mg/kg/injection, schedule: Q01DX005 (ip), vehicle: water); 116 % of control (dose: 1.6 mg/kg/injection, schedule: Q01DX005 (ip), vehicle: water); 100 % of control (dose: 5.0 mg/kg/injection, schedule: Q01DX005 (ip), vehicle: distilled water + Tween-80). Besides, the T/C reads like this: (dose: 10.0 mg/kg/injection, schedule: Q01DX005 (ip), vehicle: distilled water + Tween-80) 107 % of control; (dose: 20.0 mg/kg/injection, schedule: Q01DX005 (ip), vehicle: distilled water + Tween-80) 100 % of control; (dose: 40.0 mg/kg/injection, schedule: Q01DX005 (ip), vehicle: distilled water + Tween-80) 99 % of control; (dose: 80.0 mg/kg/injection, schedule: Q01DX005 (ip), vehicle: distilled water + Tween-80) 101 % of control.
For the compound `CC1=NNC(=O)CC1C(O)c1ccc(F)cc1` (stereo not given), the T/C is, setting by setting: under setting [5], 100 % of control; under setting [6], 104 % of control; under setting [7], 100 % of control.
As to `Cc1cc(OC(N)=S)cc(C)c1Cl`, the T/C under setting [8] is 101 % of control; the T/C (dose: 100.0 mg/kg/injection, schedule: Q01DX009 (ip), vehicle: Klucel (hydroxypropylcellulose) (HPC)) is 100 % of control; the T/C (dose: 200.0 mg/kg/injection, schedule: Q01DX009 (ip), vehicle: Klucel (hydroxypropylcellulose) (HPC)) is 101 % of control.
`CCn1c2ccc(C=O)cc2c2cc([N+](=O)[O-])ccc21`: the T/C runs as follows: under setting [9], 92 % of control; under setting [10], 86 % of control; under setting [11], 86 % of control.
`O=C(/C=C/c1ccccc1)NC1C=Nc2ccccc2NC1=O` (stereo not given): the T/C under setting [5] is 92 % of control, the T/C under setting [6] is 92 % of control and the T/C under setting [7] is 99 % of control.
As for `CCOc1ccc(-n2c(=O)c(N=Nc3ccccc3Cl)c(O)n(-c3ccc(Br)cc3)c2=S)cc1`, the T/C runs as follows: under setting [12], 90 % of control; under setting [13], 94 % of control; under setting [14], 87 % of control.
Regarding `CCOC(=O)/C(=N/NS(=O)(=O)c1c(C)cc(C)cc1C)c1ccco1`, the T/C under setting [15] was 113 % of control, the T/C under setting [1] is 106 % of control and the T/C under setting [3] is 104 % of control.
Consider `CCC(=O)NC(Cc1ccc(F)cc1)C(=O)O` (stereo not given), for which the T/C is 90 % of control (dose: 50.0 mg/kg/injection, schedule: Q01DX009 (ip), vehicle: saline); 88 % of control (dose: 100.0 mg/kg/injection, schedule: Q01DX009 (ip), vehicle: saline); 90 % of control (dose: 200.0 mg/kg/injection, schedule: Q01DX009 (ip), vehicle: saline).
On to `FC(F)(F)C1(C(F)(F)F)O[P+](c2ccccc2)(c2ccccc2)c2ccccc21`, for which the T/C is 100 % of control under setting [9], 110 % of control under setting [10] and 102 % of control under setting [11].
Regarding `Nc1cc(=O)n2cn[nH]c2n1`, the T/C is, setting by setting: under setting [12], 100 % of control; under setting [13], 103 % of control; under setting [14], 103 % of control.
Regarding `COc1ccc(C(O)(CCN2CCOCC2)c2ccc3c(c2)OCO3)cc1` (stereo not given), the T/C runs as follows: under setting [9], 90 % of control; under setting [10], 91 % of control.
In the case of `CCC(=O)NC1=C(N2CC2C)C(=O)C(NC(=O)CC)=C(N2CC2C)C1=O` (stereo not given), the T/C is, setting by setting: under setting [16], 210 % of control; (dose: 12.5 mg/kg/injection, schedule: Q01DX009 (ip), vehicle: saline) 164 % of control; under setting [17], 103 % of control; (dose: 25.0 mg/kg/injection, schedule: Q01DX009 (ip), vehicle: saline) 117 % of control.
For the compound `OCC1OC2OC3C(CO)OC(OC4C(CO)OC(OC5C(CO)OC(OC6C(CO)OC(OC7C(CO)OC(OC1C(O)C2O)C(O)C7O)C(O)C6O)C(O)C5O)C(O)C4O)C(O)C3O` (stereo not given) (tested in a mixture with another compound), the T/C runs as follows: (dose: 3.12 mg/kg/injection, schedule: Q01DX009 (ip), vehicle: water) 105 % of control; (dose: 6.25 mg/kg/injection, schedule: Q01DX009 (ip), vehicle: water) 108 % of control; (dose: 12.5 mg/kg/injection, schedule: Q01DX009 (ip), vehicle: water) 105 % of control; (dose: 25.0 mg/kg/injection, schedule: Q01DX009 (ip), vehicle: water) 122 % of control and 111 % of control and 115 % of control; (dose: 50.0 mg/kg/injection, schedule: Q01DX009 (ip), vehicle: water) 109 % of control and 111 % of control and 123 % of control; (dose: 200.0 mg/kg/injection, schedule: Q01DX009 (ip), vehicle: water) 164 % of control. The T/C (dose: 400.0 mg/kg/injection, schedule: Q01DX009 (ip), vehicle: water) was 250 % of control.
On to `C=C1CC(O)C2C(=C)C(=O)OC2C2C(C)C(=O)CC12` (stereo not given), for which the T/C (dose: 6.25 mg/kg/injection, schedule: Q01DX009 (ip), vehicle: Klucel (hydroxypropylcellulose) (HPC)) is 112 % of control; the T/C under setting [16] was 107 % of control; the T/C under setting [17] is 115 % of control; the T/C under setting [8] is 116 % of control.
As to `Nc1ccc(S(=O)(=O)n2c(=O)oc3cc(Br)ccc32)cc1`, the T/C is 99 % of control (dose: 25.0 mg/kg/injection, schedule: Q04DX002 (ip), vehicle: Klucel (hydroxypropylcellulose) (HPC)); 99 % of control (dose: 50.0 mg/kg/injection, schedule: Q04DX002 (ip), vehicle: Klucel (hydroxypropylcellulose) (HPC)); 100 % of control and 93 % of control (dose: 100.0 mg/kg/injection, schedule: Q04DX002 (ip), vehicle: Klucel (hydroxypropylcellulose) (HPC)).
With `C=CCSc1ncnc2nc[nH]c12`, the T/C by setting is: under setting [15], 100 % of control; under setting [1], 109 % of control; under setting [2], 104 % of control; under setting [4], 104 % of control.
